# Laboratory results: US4897417A, “Prodrugs of 3,4-hydroxy benzoyloxypropanolamines” (E. I. Du Pont de Nemours & Co., priority 1988, dated 1990)
# Columns and labels:
# [1] = tested on: isoproterenol-induced increase in heart rate; assay: Effect on systemic beta-blockade upon topical administration (isoproterenol-induced heart rate in anesthetized dogs); assay type: in vivo, Mongrel dogs; conditions: 120 min (dose) post-treatment, 0.125% topical, isoproterenol infusion 0.5 μg/kg/min
# [2] = tested on: isoproterenol-induced increase in heart rate; assay: as above; assay type: in vivo, Mongrel dogs; conditions: for HR, ISO only: 0 min (dose), isoproterenol only, before treatment; for HR, ISO only / HR, baseline: 0.125% group; for HR: 0.125% topical, isoproterenol infusion 0.5 μg/kg/min; for HR, baseline: -30 min, before isoproterenol and before treatment; for systemic beta-blockade of isoproterenol-induced increase in heart rate / effect on the heart rate responses to isoproterenol: in words, 50 μL, 0.125% solution; for effect on the heart rate responses to isoproterenol: topical; for drop in heart rate: within 60 minutes, 0.125% concentration
# Procedure: Mongrel dogs were anesthetized and control readings were made at -45 and -30 minutes. Following the -30 minute reading, an infusion of isoproterenol (0.5 μg/kg/min) was begun and maintained during the course of the experiment. Two readings of pretreatment isoproterenol responses were made at […] and at zero minutes. At zero minutes, a 50 μL sample of test compound was administered topically. This dose was repeated at 50, 60 and 90 minutes and the animal was monitored for heart rate for 180 minutes following the first application. Heart rate was obtained directly from the strip chart recording.
# [3] = Ocular bioavailability in rabbits (aqueous humor levels after topical corneal dosing); assay type: in vivo, New Zealand White Rabbits; conditions: for area under the AH concentration time curve (AUC0-240'): 50 μL of 0.25% Timolol or 0.5% compound 8d; for absorption in the eye: topical
# Procedure: The ocular bioavailability of Timolol and compound 8d (dipivaloyl ester prodrug of compound 9d) was evaluated in New Zealand White Rabbits. Fifty μL of a solution of 0.25% Timolol or 0.5% compound 8d (both in the same vehicle) were administered onto the cornea of both eyes of 48 rabbits (24 rabbits/compound). At 5, 15, 30, 60, 120, 180, 240, and 360 minutes after dosing, 3 rabbits (6 eyes) per compound were killed. Aqueous humor (AH), was quickly removed from the eyes, weighed and processed to determine tissue levels of Timolol or compound 8d and compound 9d.
Structure (SMILES),HR [1] [bpm],"HR, ISO only [2] [bpm]",HR ([2]; 15 min post-treatment) [bpm],HR ([2]; 30 min post-treatment) [bpm],HR ([2]; 45 min post-treatment) [bpm],HR ([2]; 60 min (dose) post-treatment) [bpm],HR ([2]; 90 min post-treatment) [bpm],HR ([2]; 150 min post-treatment) [bpm],"HR, baseline [2] [bpm]",systemic beta-blockade of isoproterenol-induced increase in heart rate [2],effect on the heart rate responses to isoproterenol [2],drop in heart rate [2] [bpm],stability in rabbit ocular tissues ([3]; in words),"area under the AH concentration time curve (AUC0-240') ([3]; aqueous humor, rabbits)","AUC of compound 8d in AH relative to AUC of Timolol in AH ([3]; aqueous humor, rabbits, after 0.25% Timolol or 0.5% compound 8d) [×]","absorption in the eye ([3]; in words, rabbits)","delivery of compound 9d to the internal structures of the eye ([3]; in words, rabbits, topical compound 8d)"
Cc1cc(OC(=O)C(C)(C)C)c(OC(=O)C(C)(C)C)cc1C(=O)OCC(O)CNC(C)(C)CNC(N)=O (stereo not drawn) [Compound 8c],210,212,212,210,210,210,210,212,158,no systemic beta-blockade,no effect,7,,,,,
Cc1cc(O)c(O)cc1C(=O)OCC(O)CNC(C)(C)CNC(=O)C1CCOC1 (stereo not drawn) [Compound 9d],,,,,,,,,,,,,stable in rabbit ocular tissues,,,,
Cc1cc(OC(=O)C(C)(C)C)c(OC(=O)C(C)(C)C)cc1C(=O)OCC(O)CNC(C)(C)CNC(=O)C1CCOC1 (stereo not drawn) [Compound 8d],,,,,,,,,,,,,,"27,377 ng/100 μL/min",3,rapidly absorbed in the eye,effectively delivers compound 9d to the internal structures of the eye
"CC(C)(C)NC[C@H](O)COc1nsnc1N1CCOCC1 [Timolol, reference compound]",183,213,198,185,174,174,179,192,142,,significant inhibitory effect,39,,"9,022 ng/100 μL/min",,rapidly absorbed in the eye,
CC(=O)NCC(C)(C)NCC(O)COC(=O)c1cc(OC(=O)C(C)(C)C)c(OC(=O)C(C)(C)C)cc1C (stereo not drawn) [Compound 8a],203,215,214,213,210,208,207,202,152,no systemic beta-blockade,no effect,2,,,,,
